Assay results taken from paper PMC4849433, “Phloem Proteomics Reveals New Lipid-Binding Proteins with a Putative Role in Lipid-Mediated Signaling” (Frontiers in Plant Science, 2016).

Tests used:
Test in all cases: liposome co-sedimentation with anti-His Western blot; protein-lipid overlay
Assay type in all cases: binding
PIG-P-like protein = target: T1, PIG-P-like protein (Arabidopsis thaliana, UniProt A0A1P8B1E2); details: pH 7.0, 0.1 M NaCl, 30 °C, 30 min; 1 μg protein; lipid in liposomes
T1 construct: gene TRM18; coding region, no signal peptide; pET15b His tag; E. coli BL21(DE3)pLysS; Ni-NTA purified; 50 kDa
T1 sequence (A0A1P8B1E2 1-464): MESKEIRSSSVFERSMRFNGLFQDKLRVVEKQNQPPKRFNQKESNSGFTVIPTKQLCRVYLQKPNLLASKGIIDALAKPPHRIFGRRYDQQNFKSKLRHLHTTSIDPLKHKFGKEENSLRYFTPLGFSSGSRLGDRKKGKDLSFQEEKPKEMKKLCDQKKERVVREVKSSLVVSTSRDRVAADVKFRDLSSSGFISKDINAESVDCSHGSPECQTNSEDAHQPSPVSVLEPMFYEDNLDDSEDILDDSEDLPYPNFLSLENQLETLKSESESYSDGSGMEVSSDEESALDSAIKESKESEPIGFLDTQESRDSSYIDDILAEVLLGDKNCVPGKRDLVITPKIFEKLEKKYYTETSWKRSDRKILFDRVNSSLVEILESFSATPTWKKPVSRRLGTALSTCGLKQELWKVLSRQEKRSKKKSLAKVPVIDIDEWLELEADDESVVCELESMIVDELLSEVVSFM

[1] = target: T2, PLAFP (phloem lipid-associated family protein) (Arabidopsis thaliana, UniProt O65660); details: pH 7.0, 0.1 M NaCl, 30 °C, 30 min; 1 μg protein; PtdOH mixed into PtdCho liposomes; figure modified from Benning et al. 2012 (same laboratory)
T2 construct: gene PLAT1; 23-residue predicted signal peptide removed; pET15b His tag; E. coli OrigamiB(DE3)pLysS; HisLink purified
T2 sequence (O65660 24-181): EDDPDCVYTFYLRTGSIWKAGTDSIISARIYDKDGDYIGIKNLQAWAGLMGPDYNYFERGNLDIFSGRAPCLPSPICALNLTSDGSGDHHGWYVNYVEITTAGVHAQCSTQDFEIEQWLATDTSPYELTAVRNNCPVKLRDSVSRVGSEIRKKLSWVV

GDSL-lipase = target: T3, GDSL-lipase (Arabidopsis thaliana, UniProt Q9C7N5); details: pH 7.0, 0.1 M NaCl, 30 °C, 30 min; 10 μg protein; lipid in liposomes
T3 construct: gene At1g29660; 26-residue predicted signal peptide removed; pET15b His tag; E. coli BL21(DE3)pLysS; Ni-NTA purified
T3 sequence (Q9C7N5 27-364): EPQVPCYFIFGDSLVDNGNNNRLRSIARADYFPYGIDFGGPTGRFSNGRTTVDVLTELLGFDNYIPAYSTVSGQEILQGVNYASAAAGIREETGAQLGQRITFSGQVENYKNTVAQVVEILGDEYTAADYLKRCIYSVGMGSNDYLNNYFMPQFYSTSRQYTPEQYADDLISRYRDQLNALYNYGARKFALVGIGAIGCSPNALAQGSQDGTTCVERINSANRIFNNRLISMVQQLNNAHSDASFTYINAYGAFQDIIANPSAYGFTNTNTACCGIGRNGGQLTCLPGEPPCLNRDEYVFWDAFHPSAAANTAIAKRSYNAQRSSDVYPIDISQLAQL

SMILES: CCCCCCCC/C=C\CCCCCCCC(=O)OC[C@H](COP(=O)(O)O)OC(=O)CCCCCCC/C=C\CCCCCCCC [PtdOH]
- liposome co-sedimentation with anti-His Western blot; protein-lipid overlay (PIG-P-like protein): PIG-P binds to liposomes containing PtdOH or PtdSer
- liposome co-sedimentation with anti-His Western blot; protein-lipid overlay [1]: when PtdOH was included in the liposome, PLAFP bound
- liposome co-sedimentation with anti-His Western blot; protein-lipid overlay (GDSL-lipase): the GDSL-lipase does associate with PtdOH-containing liposomes (Figure 1G)
